According to US20120245343A1, “ARGININE DERIVATIVES OR SALTS THEREOF EXHIBITING THE EFFECTS OF IMPROVING SEXUAL FUNCTION, COMPOSITION FOR IMPROVING SEXUAL FUNCTION COMPRISING SAME, AND METHOD FOR PREPARING SAME” (priority 2009, published 2012):

Assays:
[1] = test system: eNOS; assay: Expression of eNOS in penile tissues by immunoblotting; assay type: in vivo; details: male Sprague-Dawley rats, orally administered for 7 days twice a day; AFG 200 and 400 mg/kg/day, BGE 400 mg/kg/day; vs control group; FIG. 8
Method: (§1) 8 weeks old male Sprague-Dawley rats were obtained from Orient Co., Ltd. (Korea) and used as exprimental animals. A breeding cage was conditioned with artificial lighting for 12 hours (8:00 a.m. to 8:00 p.m) and maintained at 20±3° C. The rats were provided with purified water and fed with pellet diet (Samyang diet, Korea). Food and water were not limited and supplied to the rats at a certain time of 9:00 a.m. to 10:00 a.m. every day.
(§2) 8 weeks old male Sprague-Dawley rats were allowed to be adapted to the environment of the breeding cage. […] The amount of dietary intake was measured at a certain time of 9:00 a.m. to 10:00 a.m. every day. […]
(§3) After quickly pouring liquid nitrogen into the tissues and pulverizing the tissues, proteins were extracted by RIPA lysis buffer (pH 7.4) containing 50 mM Tris-HCl, 1% NP-40, 0.25% sodium deoxycholate, 150 mM NaCl, 1 mM EDTA, 1 mM PMSF, 1 mM sodium orthovanadate, 1 mM NaF, 1 mg/mL aprotinin, 1 mg/mL leupeptin and 1 mg/mL pepstatin. After quantifying the extracted proteins using Bio-Rad protein assay kit, 30 μg and 40 μg of proteins were separated by SDS-PAGE using 8% acrylamide gel for 2 hours, and transferred to nitrocellulose membrane with being blocked by 2% BSA. […]

[2] = test system: nNOS; assay: Expression of nNOS in penile tissues by immunoblotting; assay type: in vivo; details: male Sprague-Dawley rats, orally administered for 7 days twice a day; AFG 200 and 400 mg/kg/day, BGE 400 mg/kg/day; vs control group; FIG. 8
Method: as §1, §2, §3

[3] = test system: nitric oxide (NO); assay: Measurement of nitric oxide (NO) in penile tissues; assay type: in vivo; details: male Sprague-Dawley rats, orally administered for 7 days twice a day; AFG 200 and 400 mg/kg/day, BGE 400 mg/kg/day; vs control group; FIG. 9
Method: as §1
8 weeks old male Sprague-Dawley rats were allowed to be adapted to the environment of the breeding cage. Depending on their body weight, the rats were divided into 5 groups of control group (saline), Viagra® group (1.7 mg/kg/day), two AFG groups (200 and 400 mg/kg/day) and BGE (conventional red ginseng) group (400 mg/kg/day) and orally administered for 7 days twice a day (in the morning and in the afternoon). The amount of dietary intake was measured at a certain time of 9:00 a.m. to 10:00 a.m. every day. […]
The amount of the produced nitric oxide was measured by a method which slightly modifies methods proposed by Park (J. Ethnopharmacol, 2004) and Knowles (Biochem. J, 1990). […]
For 200 μL of the supernatant, the fluorescence intensity of DAF was measured at 485 nm of excitation wavelength and at 535 nm of emission wavelength using a fluorescence reader (TECAN Trading AG, Switzerland).

[4] = test system: cGMP; assay: Measurement of cGMP in penile tissues; assay type: in vivo; details: male Sprague-Dawley rats, FIG. 10
Method: as §1
8 weeks old male Sprague-Dawley rats were allowed to be adapted to the environment of the breeding cage. Depending on their body weight, the rats were divided into 5 groups of control group (saline), Viagra® group (1.7 mg/kg/day), two AFG groups (200 and 400 mg/kg/day) and BGE (conventional red ginseng) group (400 mg/kg/day) and orally administered for 7 days twice a day (in the morning and in the afternoon). The amount of dietary intake was measured at a certain time of 9:00 a.m. to 10:00 a.m. every day.
After the end of feeding period, the rats were fasted for 12 hours and anesthetized with […]. […]
The concentration of cGMP was measured by a method which slightly modifies methods proposed by Park (J. Ethnopharmacol, 2004) and Knowles (Biochem. J, 1990). […]
A standard curve was created by using 0.8-50 pmol/mL of cGMP, and the concentration of cGMP was measured by cGMP ELISA kit (Aassay Designs, Inc., Michigan). […]

[5] = test system: activated eNOS; assay: Expression of activated eNOS in endothelial cells; assay type: cell-based; details: immunoblotting, FIG. 11
Method: Endothelial cells (BAECs) previously treated with the samples were washed with cold PBS buffer (pH 7.2) twice and then treated with RIPA lysis buffer [50 mM Tris-HCl, 150 mM NaCl, 0.5% sodium deoxycholate, 1% NP 40, 1% phosphatase inhibitor cocktail, 1 mM PMSF] in 150 μL/well to collect cell extracts. The protein content of the collected cell extracts was determined using Bradford assay, and then 25 μg of the protein was separated by using SDS-PAGE and transferred to nitrocellulose membrane. The nitrocellulose membrane was blocked with 1% BSA (Bovine serum albumin) solution at room temperature for 1 hour, and reacted with a primary antibody specific for the target protein at 4° C. for 12 hours. Upon completion of the reaction, the nitrocellulose membrane was washed with TBST (10 mM Tris-HCl, 150 mM NaCl, 0.05% NP 40) several times, and reacted with a secondary antibody binding to HRP (Horse radish peroxidase) at room temperature for 1 hour. After that, the nitrocellulose membrane was washed again with TBST and the target protein was confirmed by using ECL solution. To identify the target protein, luminesent image analyzer (LAS 4000 mini) were used. […] It is possible to produce nitric oxide (NO) when eNOS is phosphorylated to be activated. […]

[6] = test system: arginase; details: for Km: read-out: Km of arginase; for Km / Vmax of arginase: substrate of arginase, 55° C., 10 minutes, pH 10.0
Method: 20 mU arginase was dissolved in 150 μL of 0.1M carbonate-bicarbonate buffer (pH 10.0). […] After that, 750 μL of acetic acid was added to the reaction mixture so as to stop the reaction. Then, 250 μL of ninhydrin solution was added to the mixture and was reacted at 100° C. for 1 hour. The reaction mixture was cooled and the absorbance was measured at 515 nm using ELISA reader.
A standard curve was created by using 0.01-10 μM of L-ornithine, and then the arginase activity was calculated and represented from the ornithine standard curve.

| SMILES | expression of eNOS in the penile tissues [1] | expression of nNOS in the penile tissues [2] | production of nitric oxide (NO) in the penile tissues [3] | concentration of cGMP in the penile tissues ([4]; orally administered for 7 days twice a day, AFG 200 and 400 mg/kg/day, BGE 400 mg/kg/day, Viagra 1.7 mg/kg/day, vs negative control group) | increase of the concentration of cGMP compared with the positive control group of Viagra ([4]; penile tissues) | expression of the activated eNOS in the endothelial cells (BAECs) [5] | decomposition rate of arginase as compared with arginine [6] | Km [6] | Vmax of arginase [6] |
| --- | --- | --- | --- | --- | --- | --- | --- | --- | --- |
| NC(N)=NCCC[C@H](NC[C@@]1(O)OC[C@@H](O)[C@@H](O[C@@H]2O[C@H](CO)[C@@H](O)[C@H](O)[C@H]2O)[C@@H]1O)C(=O)O [AFG, arginyl-fructosyl-glucose] | increased | increased | increased | increased | less than the positive control group | increased | very low | 129 µM | 588 µmol/min |
| N=C(N)NCCC[C@H](N)C(=O)O [Arginine, L-arginine] | – | – | – | – | – | – | – | 12 µM | 1,000 μmoles/min |
